Test results as given in ChEMBL document CHEMBL2375302, “Synthesis, antimicrobial, antiquorum-sensing, antitumor and cytotoxic activities of new series of fused [1,3,4]thiadiazoles” (Eur J Med Chem, 2013).
In brackets after ≈: the same amount, converted by molar mass.

Columns and labels:
[1] = Toxicity against brine shrimp larvae assessed as mortality at 10 ug/mL after 24 hrs by binocular microscopic analysis relative to control; format: organism-based; settings: artemia salina, in vivo
[2] = Toxicity against brine shrimp larvae assessed as mortality at 1000 ug/mL after 24 hrs by binocular microscopic analysis relative to control; format: organism-based; settings: artemia salina, in vivo
[3] = Toxicity against brine shrimp larvae assessed as mortality at 100 ug/mL after 24 hrs by binocular microscopic analysis relative to control; format: organism-based; settings: artemia salina, in vivo
Aspergillus flavus = experiment: Antifungal activity against Aspergillus flavus 3372 at 5 mg/mL after 48 hrs; format: functional; settings: Aspergillus flavus, 3372, 48 h; read-out: DIZ
Escherichia coli = experiment: Antibacterial activity against Escherichia coli at 5 mg/mL after 24 hrs; format: functional; settings: read-out: DIZ
Aspergillus fumigatus = experiment: Antifungal activity against Aspergillus fumigatus Af293 at 5 mg/mL after 48 hrs; format: functional; settings: Af293, 48 h, read-out: DIZ
[4] = tested on: Chromobacterium violaceum; experiment: Antiquorum-sensing activity against Chromobacterium violaceum ATCC 12472 after 48 hrs; format: functional
Candida albicans = experiment: Antifungal activity against Candida albicans at 5 mg/mL after 48 hrs; format: functional; settings: read-out: DIZ
Bacillus cereus = experiment: Antibacterial activity against Bacillus cereus at 5 mg/mL after 24 hrs; format: functional; settings: read-out: DIZ
[5] = (§1) Toxicity against brine shrimp larvae assessed as mortality after 24 hrs by binocular microscopic analysis; format: organism-based; settings: artemia salina, in vivo
Artemia salina = experiment: as §1; format: organism-based; settings: in vivo, 24 h
[6] = Toxicity against brine shrimp larvae assessed as mortality at 500 ug/mL after 24 hrs by binocular microscopic analysis relative to control; format: organism-based; settings: artemia salina, in vivo
Staphylococcus aureus = experiment: Antibacterial activity against Staphylococcus aureus at 5 mg/mL after 24 hrs; format: functional; settings: read-out: DIZ

Compound	mortality at 24 h, 10 ug/mL [1] [%]	mortality at 24 h, 1000 ug/mL [2] [%]	mortality at 24 h, 100 ug/mL [3] [%]	zone of inhibition at 5000 µg/mL (Aspergillus flavus) [mm]	zone of inhibition at 5000 µg/mL (Escherichia coli) [mm]	zone of inhibition at 5000 µg/mL (Aspergillus fumigatus) [mm]	diameter of the inhibition zone (DIZ) [4] [mm]	zone of inhibition at 5000 µg/mL (Candida albicans) [mm]	zone of inhibition at 5000 µg/mL (Bacillus cereus) [mm]	LC50 at 24 h [5] [µg/mL]	LC90 (Artemia salina) [µg/mL]	mortality at 24 h, 500 ug/mL [6] [%]	zone of inhibition at 5000 µg/mL (Staphylococcus aureus) [mm]
CCOC(=O)C1C(=O)N=C2SC(S(N)(=O)=O)=NN2C1c1ccc(Cl)cc1 (stereo unspecified)	36.6	83.3	53.3	< 2	< 2	< 2	11	< 2	4	508 (≈ 1220 µM)	914.63 (≈ 2190 µM)	70	3
CCOC(=O)C1C(=O)N=C2SC(S(N)(=O)=O)=NN2C1c1ccc(OC)c(OC)c1 (stereo unspecified)	50	93.3	70	< 2	< 2	< 2	8	4	7	442 (≈ 1000 µM)	796.46 (≈ 1800 µM)	83.3	8
N#CC1C(=O)N=C2SC(S(N)(=O)=O)=NN2C1c1ccc(Cl)cc1 (stereo unspecified)	23.3	66.6	36.6	< 2	< 2	6	11	8	< 2	660 (≈ 1780 µM)	1187.33 (≈ 3210 µM)	50	< 2
COc1ccc(C2C(C#N)C(=O)N=C3SC(S(N)(=O)=O)=NN32)cc1OC (stereo unspecified)	36.6	70	50	< 2	< 2	8	8	24	9	598 (≈ 1510 µM)	1076.55 (≈ 2720 µM)	60	10
CN(C)c1ccc(C2C(C#N)C(=O)N=C3SC(S(N)(=O)=O)=NN32)cc1 (stereo unspecified)	70	100	86.6	< 2	< 2	8	6	32	6	400 (≈ 1060 µM)	719.42 (≈ 1900 µM)	96.6	7
Nc1c(/N=N/c2ccccc2)c(=O)nc2sc(S(N)(=O)=O)nn12	66.6	96.6	80	< 2	10	< 2	<2	4	7	419 (≈ 1190 µM)	755.03 (≈ 2150 µM)	90	7
Nc1c(/N=N/c2ccc(Br)cc2)c(=O)nc2sc(S(N)(=O)=O)nn12	46.6	90	66.6	< 2	< 2	4	12	6	5	460 (≈ 1070 µM)	827.2 (≈ 1920 µM)	80	9
Cc1ccc(/N=N/c2c(N)n3nc(S(N)(=O)=O)sc3nc2=O)cc1	90	100	96.6	5	4	6	12	12	3	392 (≈ 1070 µM)	706.43 (≈ 1930 µM)	100	8
COc1ccc(/N=N/c2c(N)n3nc(S(N)(=O)=O)sc3nc2=O)cc1	73.3	100	86.6	5	5	< 2	11	6	3	404 (≈ 1060 µM)	726.97 (≈ 1910 µM)	93.3	8
COc1ccc2c(c1)CCC1=C2N=C2SC(S(N)(=O)=O)=NN2C1c1ccc(Br)cc1 (stereo unspecified)				< 2	< 2	6	<2	14	< 2				< 2
COc1ccc2c(c1)CCC1=C2N=C2SC(S(N)(=O)=O)=NN2C1c1ccc(Cl)cc1 (stereo unspecified)	50	96.6	66.6	< 2	< 2	< 2	<2	< 2	< 2	438 (≈ 951 µM)	788.78 (≈ 1710 µM)	80	< 2
COc1ccc2c(c1)CCC1=C2N=C2SC(S(N)(=O)=O)=NN2C1c1ccc(OC)c(OC)c1 (stereo unspecified)	46.6	93.3	63.3							455 (≈ 936 µM)	819.67 (≈ 1680 µM)	76.6	
N=c1cc(N)n2nc(S(N)(=O)=O)sc2n1				< 2	< 2	< 2	<2	< 2	< 2				< 2
NS(=O)(=O)C1=NN2C(=O)c3ccccc3NC(c3ccsc3)/N=C\2S1 (stereo unspecified)	46.6	86.6	66.6	< 2	< 2	< 2	6	< 2	< 2	477 (≈ 1210 µM)	858.77 (≈ 2180 µM)	76.6	< 2
NS(=O)(=O)C1=NN2CCC(=O)N=C2S1	70	100	90	10	11	8	<2	12	4	399 (≈ 1700 µM)	717.7 (≈ 3060 µM)	96.6	16
NS(=O)(=O)C1=NN2CC(=O)N=C2S1				< 2	< 2	< 2	<2	5	< 2				< 2
NS(=O)(=O)C1=NN2C(=NC(=O)/C2=C\c2ccc(Br)cc2)S1	23.3	80	40	< 2	< 2	< 2	<2	8	2	551 (≈ 1420 µM)	992.28 (≈ 2560 µM)	60	2
COc1ccc(/C=C2\C(=O)N=C3SC(S(N)(=O)=O)=NN32)cc1OC	63.3	96.6	76.6	7	< 2	16	<2	4	4	425 (≈ 1150 µM)	765.3 (≈ 2080 µM)	86.6	4
CC1(C)S[C@@H]2[C@H](NC(=O)[C@H](N)c3ccccc3)C(=O)N2[C@H]1C(=O)O [AMPICILLIN]					23				3.5				14
OC(Cn1cncn1)(Cn1cncn1)c1ccc(F)cc1F [FLUCONAZOLE]				< 2		< 2		22					
O=c1[nH]cc(F)c(=O)[nH]1 [FLUOROURACIL]	63.3	100	83.3							409 (≈ 3150 µM)	736.49 (≈ 5660 µM)	90	
